Counter-ions that a name gives are not always drawn. Like-named read-outs stand apart in the source and are kept apart here. Values belong to the compound of their own block, whether it stands above or below them.
Assays:
[1] = biological target: T1, full-length human HuR protein (Homo sapiens, UniProt Q15717); assay: FP assay of HuR-Msi1 ARE binding inhibition; conditions: HuR-Msi1 ARE interaction; read-out: HuR Ki via FP assay
T1 construct: full-length human HuR protein was produced by the KU COBRE-PSF Protein Purification Group; made in house
Text: (§1) A fluorescence polarization (FP)-based binding assay was utilized to assess the inhibition of HuR protein interaction with the ARE site of Msi1 mRNA (“HuR-Msi1^ARE”) by compounds of interest. Briefly, full-length human HuR protein was produced by the KU COBRE-PSF Protein Purification Group and Bcl2, Msi1 and XIAP mRNA sequences (16 nt) were designed based on literature precedent^23,24,31,32. Fluorescein labeled RNAs were purchased from Dharmacon with the following sequences: Msi1 RNA: 5′-[…]-3′-fluorescein; Bcl-2 RNA: 5′-[…]-3′-fluorescein; XIAP RNA: 5′-[…] UGUC-3′-fluorescein, and a 16-nt degenerative RNA with 3′-fluorescein label was used as a negative control.
(§2) With the FP assay of HuR-Msi1ARE binding, the inhibition of the HuR-Msi1ARE interaction by various compounds of the present technology was assessed. Similar FP assays for Musashi 2 (Msi2) and for RNA-binding protein Lin-28 homolog B (LIN28B) were also performed on various compounds of the present technology. The results of such assays for HuR are provided in Table 1 alongside the compound structures as well as ID numbers for ease of reference; the results of such assays for Msi1, Msi2, and LIN28B are provided in Table 2.

[2] = test system: triple-negative breast cancer cell line MDA-MB-231; assay: Cytotoxicity assay (WST-8), MDA-MB-231; assay type: cell-based; conditions: Homo sapiens, 96 h incubation
Protocol: (§3) The cytotoxicity of various compounds of the present technology in several cancer cell lines (pancreatic cancer cell line MIAPaCa-2, triple-negative breast cancer cell line MDA-MB-231, and colon cancer cell lines HCT116, HCT116 β/W, and RKO) was assessed by a cytotoxicity assay. Cells were seeded in 96-well culture plates (3,000-5,000 cells/well) and treated with titrated compounds in triplicate. After 96 h incubation, cell growth medium was removed and proliferation reagent WST-8 (Sigma) was added to each well and incubated at 37° C. for 1-3 h. Absorbance was then measured with a plate reader at 450 nm with correction at 650 nm. The results were expressed as the percentage of absorbance of treated wells versus that of vehicle control. IC50, the drug concentration causing 50% growth inhibition, was calculated via sigmoid curve fitting using GraphPad Prism 5.0. The results for those compounds tested against MIAPaCa-2 and MDA-MB-231 are provided in Table 1; the results for those compounds tested against colon cancer cell lines HCT116, HCT116 β/W, and RKO are provided in Table 3.

Musashi 2 (Msi2) = Musashi 2 (Msi2) (Homo sapiens, UniProt Q96DH6); assay: Msi2 FP assay; assay type: binding
Protocol: as §2

[3] = biological target: T2, RNA-binding protein Lin-28 homolog B (LIN28B) (Homo sapiens, UniProt Q6ZN17); assay: LIN28B FP assay
T2 sequence (Q6ZN17 1-250): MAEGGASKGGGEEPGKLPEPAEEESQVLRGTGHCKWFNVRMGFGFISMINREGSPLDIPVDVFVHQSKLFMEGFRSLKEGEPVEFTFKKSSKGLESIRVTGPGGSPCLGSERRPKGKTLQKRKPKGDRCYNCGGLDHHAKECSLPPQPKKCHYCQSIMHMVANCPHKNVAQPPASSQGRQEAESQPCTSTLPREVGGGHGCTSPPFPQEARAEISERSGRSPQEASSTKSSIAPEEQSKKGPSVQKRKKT
Protocol: as §2

[4] = test system: MDA-MB-231 HuR knockout clones (HuR KO1 and HuR KO2); assay: Cytotoxicity against HuR knockout clones of MDA-MB-231; assay type: cell-based; conditions: HuR KO1 and HuR KO2 vs MDA-MB-231 and sgControl
Protocol: as §3
The cytotoxicity of KH-39 and KH-58 against HuR knockout clones was probed by the same assay as described above. […]

[5] = biological target: T3, HuR protein bound to ARE^Msi1-Biotin (Homo sapiens, UniProt Q15717); assay: RNA immunoprecipitation (RNA-IP) pull-down assay; assay type: cell-based
T3 construct: endogenous in cells; cytoplasmic lysate
Protocol: Pull-down Assay #1—RNA Immunoprecipitation (RNA-IP): Cells with HuR overexpression will be treated with compounds, then the cell cytoplasmic lysates were collected using NE-PER Nuclear and Cytoplasmic Extraction Kit (Thermo Scientific), and subsequently to the cell cytoplasmic lysates were added the biotinylated target ARE oligo from Msi1 mRNA (ARE^Msi1-Biotin). Following this, streptavidin beads were added to pull down HuR protein bound to ARE^Msi1-Biotin. Unlabeled target AREs used as positive control. Compounds of the present technology block the HuR pull-down by the biotinylated ARE oligo, illustrating inhibition of the HuR-mRNA interaction. For example, using 20 μM KH-39, 20 μM KH-56, and 10 μM KH-58 in such a RNA-IP assay provided the data illustrated in FIG. 5. The numbers immediately below the pictured bands in FIG. 5 are calculated by diving the band intensity of the particular sample by the band intensity of the DMSO treated sample (entry 3). […]

[6] = biological target: T4, HuR-bound target mRNAs in MDA-MB-231 cells (Homo sapiens, UniProt Q15717); assay: Ribonucleoprotein immunoprecipitation (RNP-IP) pull-down assay; assay type: cell-based
T4 construct: endogenous in cells; host or cells: MDA-MB-231
Protocol: Pull-down Assay #2—Ribonuleoprotein Immunoprecipitation (RNP-IP): Cells with HuR overexpression were treated with compounds, then the cell cytoplasmic lysates collected using NE-PER Nuclear and Cytoplasmic Extraction Kit (Thermo Scientific), then the cell cytoplasmic lysates incubated with anti-HuR antibody, and subsequently Protein G agarose beads (from Roche) added to pull down HuR protein. The HuR-bound target mRNAs pulled down were measured by qRT-PCR using a reported method (Ji, Q., et al., MicroRNA miR-34 inhibits human pancreatic cancer tumor-initiating cells. PLoS One, 2009. 4(8): p. e6816, incorporated herein by reference). Mouse IgG will be used as negative control. Compounds of the present technology block the target mRNAs pulled down by HuR antibody.

MDA-MB-231 cells = assay: Matrigel invasion assay; assay type: cell-based; conditions: 24 h pretreatment, 20 h incubation
Protocol: To examine the anti-metastatic effect of compounds of the present technology, an invasion assay using Matrigel Invasion Chambers coated with Matrigel Matrix was performed. To perform the assays, MDA-MB-231 cells pretreated with compounds for 24 hours are added to the chambers and then incubated for 20 hours. Cells that remained on the upper surface of the chamber are completely removed with a cotton swab. Cells that emigrated or invaded through the membrane/Matrigel to the bottom of the chamber were fixed and stained with 0.2% crystal violet and photographed.

[7] = test system: pancreatic cancer cell line MIAPaCa-2; assay: Cytotoxicity assay (WST-8), MIAPaCa-2; assay type: cell-based; conditions: Homo sapiens, MIA PaCa-2, 96 h incubation
Protocol: as §3

Msi1 = Msi1 (Homo sapiens, UniProt O43347); assay: Msi1 FP assay; assay type: binding
Protocol: as §2

[8] = test system: colon cancer cell line HCT116; assay: Cytotoxicity assay (WST-8), HCT116; assay type: cell-based; conditions: Homo sapiens, HCT-116, 96 h incubation
Protocol: as §3

[9] = test system: colon cancer cell line HCT116 β/W; assay: Cytotoxicity assay (WST-8), HCT116 β/W; assay type: cell-based; conditions: Homo sapiens, HCT-116, 96 h incubation
Protocol: as §3

[10] = test system: colon cancer cell line RKO; assay: Cytotoxicity assay (WST-8), RKO; assay type: cell-based; conditions: 96 h incubation
Protocol: as §3

[11] = test system: colon cancer cell line SW480; assay: Cytotoxicity assay (WST-8), SW480; assay type: cell-based; conditions: Homo sapiens, 96 h incubation
[12] = test system: HuR targets in MDA-MB-231 cells; assay: Western blot analysis of HuR targets and cell death markers; assay type: cell-based
Text: As HuR promotes stability of its target mRNAs, it is expected that HuR-inhibitors will block HuR function and shorten the half-life (t1/2) of target mRNAs. mRNA stability will be determined via quantitative real-time PCR (qRT-PCR) after co-treatment of compounds of the present technology and Actinomycin D (a transcription inhibitor). Because HuR also increases the translation of target mRNAs, the effect of compounds of the present technology on protein levels of HuR targets was probed by Western blot analysis.

[13] = biological target: T1, full-length human HuR protein; assay: FP-based binding of full length HuR to fluorescein-labeled target RNAs; conditions: 16 nt RNA oligo, 3′-fluorescein
Protocol: FIG. 3 provides the results of a fluorescence polarization (FP)-based binding assay, illustrating that full length HuR binds to FITC-Bcl-2, Msi1, and XIAP RNA but not to scrambled oligo-FITC. The concentration of FITC-RNA used in the assay is 2 nM.
as §1

[14] = cell marked (RRM1), read-out: Msi2 (Ki) (RRM1)

Musashi 2 (Msi2), sequence (Q96DH6 whole entry, species assumed): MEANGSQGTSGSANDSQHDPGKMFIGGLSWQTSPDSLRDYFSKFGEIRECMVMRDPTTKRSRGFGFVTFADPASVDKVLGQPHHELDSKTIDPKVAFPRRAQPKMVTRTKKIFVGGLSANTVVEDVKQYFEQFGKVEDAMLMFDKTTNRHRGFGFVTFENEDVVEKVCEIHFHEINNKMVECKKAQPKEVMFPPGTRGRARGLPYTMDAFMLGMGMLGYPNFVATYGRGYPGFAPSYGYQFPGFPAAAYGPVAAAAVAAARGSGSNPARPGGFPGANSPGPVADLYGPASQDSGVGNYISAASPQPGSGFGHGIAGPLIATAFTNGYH
T1 sequence (Q15717 whole entry): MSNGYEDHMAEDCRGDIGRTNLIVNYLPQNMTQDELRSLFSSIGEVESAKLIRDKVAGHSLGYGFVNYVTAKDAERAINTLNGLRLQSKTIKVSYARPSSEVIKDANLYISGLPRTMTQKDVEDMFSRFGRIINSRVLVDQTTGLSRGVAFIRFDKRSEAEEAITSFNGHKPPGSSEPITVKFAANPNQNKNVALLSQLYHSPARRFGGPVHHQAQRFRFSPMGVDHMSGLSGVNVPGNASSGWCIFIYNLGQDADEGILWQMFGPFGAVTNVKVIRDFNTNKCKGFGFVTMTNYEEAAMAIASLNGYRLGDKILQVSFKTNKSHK
T4 sequence (Q15717 2-326 limits assumed): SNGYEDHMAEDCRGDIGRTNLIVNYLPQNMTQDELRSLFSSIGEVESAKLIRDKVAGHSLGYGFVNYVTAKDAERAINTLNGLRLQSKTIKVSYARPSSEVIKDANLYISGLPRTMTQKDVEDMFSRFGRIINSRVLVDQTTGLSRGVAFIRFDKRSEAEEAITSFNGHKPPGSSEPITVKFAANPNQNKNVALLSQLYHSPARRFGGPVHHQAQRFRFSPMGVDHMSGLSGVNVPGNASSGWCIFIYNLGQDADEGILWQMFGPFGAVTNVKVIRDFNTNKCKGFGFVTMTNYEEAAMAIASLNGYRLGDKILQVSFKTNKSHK
T3 sequence (Q15717 2-326 limits assumed): as above
Msi1, sequence (O43347 whole entry, species assumed): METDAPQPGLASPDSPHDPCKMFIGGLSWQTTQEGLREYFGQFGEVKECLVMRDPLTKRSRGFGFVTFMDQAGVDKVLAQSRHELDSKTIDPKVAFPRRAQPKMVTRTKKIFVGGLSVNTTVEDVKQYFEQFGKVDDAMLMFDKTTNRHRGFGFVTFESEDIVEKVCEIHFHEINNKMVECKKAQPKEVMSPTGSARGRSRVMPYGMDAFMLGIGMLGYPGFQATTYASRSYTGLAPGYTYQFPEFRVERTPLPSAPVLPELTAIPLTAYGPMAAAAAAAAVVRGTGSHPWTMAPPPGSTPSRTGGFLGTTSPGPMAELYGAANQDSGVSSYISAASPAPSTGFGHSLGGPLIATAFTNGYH

- Ki [1]: 610 nM
- Ki (Musashi 2 (Msi2); [14]): 3350 nM
- Ki [3]: 4570 nM
Compound: CN(C)c1ccc(C(=O)Nc2ccc3sc(C(=O)NO)cc3c2)cc1 [KH-58, 5-(4-(dimethylamino)benzamido)-N-hydroxybenzo[b]thiophene-2-carboxamide]
- IC50 [2]: 1310 nM
- IC50 of HuR KO clones versus parental cells and vector control cells [4]: two to three folds higher IC50 values
- ARE^Msi1-Biotin mediated pull-down of HuR protein ([5]; 10 μM): block ARE^Msi1-Biotin mediated pull-down of HuR protein
- HuR pull-down of target mRNAs ([6]; 5 μM): at least partially block HuR pull-down of target mRNAs
- MDA-MB-231 cell invasion (MDA-MB-231 cells; 5 μM): clearly inhibited MDA-MB-231 cell invasion

- Ki [1]: 150 nM
- Ki (Msi1): 1970 nM
- Ki (Musashi 2 (Msi2); [14]): 450 nM
- Ki [3]: 3200 nM
Compound: CC(C)(C)c1ccc(C(=O)Nc2ccc3sc(/C=C/C(=O)NO)cc3c2)cc1 [KH-19, (E)-4-(tert-butyl)-N-(2-(3-(hydroxyamino)-3-oxoprop-1-en-1-yl)benzo[b]thiophen-5-yl)benzamide]
- IC50 [7]: 2340 nM
- IC50 [2]: 1330 nM
- IC50 [8]: 2220 nM
- IC50 [9]: 2630 nM
- IC50 [10]: 4480 nM
- IC50 [11]: 5140 nM
- cell death mechanisms: PARP cleavage, LC3 conversion, RIP3 activation [12]: induced cell death through apoptosis, autophagy and necroptosis
- protein levels of HuR targets [12]: decreased the protein levels of HuR targets
- MDA-MB-231 cell invasion (MDA-MB-231 cells; concentrations indicated in FIG. 8): inhibited MDA-MB-231 cell invasion

Compound: 5′-AAAAGAUUUAUUUAUU-3′-fluorescein (3'-fluorescein, further chemistry not given here) [Bcl-2 RNA, Fluorescein labeled 16 nt RNA purchased from Dharmacon]
- Kd [13]: 6.3 nM

- Ki [1]: > 20000 nM
- Ki (Musashi 2 (Msi2); cell without (RRM1) mark, read-out: Msi2 (Ki)): > 20000 nM
- Ki [3]: > 20000 nM
- ARE^Msi1-Biotin mediated pull-down of HuR protein ([5]; 20 μM): did not show pull-down of HuR protein
Compound: O=C(Nc1ccc2[nH]c(C(=O)NO)cc2c1)c1ccccn1 [KH-56, N-hydroxy-5-(picolinamido)-1H-indole-2-carboxamide hydrochloride]
- IC50 [2]: 75300 nM
- HuR pull-down of target mRNAs ([6]; 10 μM): did not provide results statistically distinguishable from vehicle control
- MDA-MB-231 cell invasion (MDA-MB-231 cells; 10 μM): did not provide a statistically significant difference

Compound: 5′-GCUUUUAUUUAUUUUG-3′-fluorescein (3'-fluorescein, further chemistry not given here) [Msi1 RNA, Fluorescein labeled 16 nt RNA purchased from Dharmacon]
- Kd [13]: 2 nM

Compound: 5′-UAGUUAUUUUUA UGUC-3′-fluorescein (UAGUUAUUUUUAUGUC; 3'-fluorescein, further chemistry not given here) [XIAP RNA, Fluorescein labeled 16 nt RNA purchased from Dharmacon]
- Kd [13]: 3.5 nM

- Ki [1]: 970 nM
- Ki (Msi1): 2240 nM
- Ki (Musashi 2 (Msi2); [14]): 280 nM
- Ki [3]: > 20000 nM
Compound: CC(C)(C)c1ccc(C(=O)Nc2ccc3sc(/C=C/C(=O)O)cc3c2)cc1 [KH-19A, (E)-3-(5-(4-(tert-butyl)benzamido)benzo[b]thiophen-2-yl)acrylic acid]
- IC50 [7]: 56000 nM
- IC50 [2]: 72100 nM
- IC50 [8]: > 100000 nM
- IC50 [9]: 80600 nM
- IC50 [10]: 78500 nM
- IC50 [11]: > 100000 nM
